Measurements: patent US9187435B2, “Bridged Spiro[2.4]heptane ester derivatives” (Actelion Pharmaceuticals Ltd., priority 2010, dated 2015)
pEC50: −log10 of the molar value. Structures can show the parent of a compound that is named as a salt.

What follows are compounds tested against T1, human ALX receptor (Homo sapiens, UniProt P25090) (assay: Intracellular calcium measurements (FLIPR) in HEK293-hALXR-Gα16 cells, agonistic activity). Settings: values normalized to WKYMVm 10 nM.
T1 construct: expressed in transfected cells; host or cells: HEK293 (HEK293-hALXR-Gα16)
T1 sequence (P25090 1-351): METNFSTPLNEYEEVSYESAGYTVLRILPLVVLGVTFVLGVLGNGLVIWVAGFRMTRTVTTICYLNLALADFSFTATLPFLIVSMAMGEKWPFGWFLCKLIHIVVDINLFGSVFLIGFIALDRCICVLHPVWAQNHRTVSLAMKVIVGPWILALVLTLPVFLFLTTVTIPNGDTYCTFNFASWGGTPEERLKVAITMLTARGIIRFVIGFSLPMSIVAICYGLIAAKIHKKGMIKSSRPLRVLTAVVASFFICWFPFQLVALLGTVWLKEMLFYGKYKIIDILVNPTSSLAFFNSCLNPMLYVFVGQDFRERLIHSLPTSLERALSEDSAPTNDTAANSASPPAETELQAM
Format: cell-based
Procedure, shortened: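 HEK293 cells co-expressing human ALX receptor and Gα16, loaded with 1 μM Fluo-4 AM (60 min, 37 °C), then exposed to serially diluted compound. Peak fluorescence above baseline (ex 488/em 540 nm) was recorded after compound addition. Values were normalized to 10 nM WKYMVm as the high control, after subtracting the buffer-addition baseline.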

Row | Structure (SMILES) | pEC50
1 | Cc1cc(CNC(=O)[C@H]2[C@H](C(=O)O[C@@H]3CCNC[C@H]3F)[C@H]3CC[C@@H]2C32CC2)on1 (relative stereo) [Example 46, (1S,2R,3R,4R)-[(trans-3-Fluoro-piperidin-4-yl) 2-(((3-methylisoxazol-5-yl)methyl)carbamoyl)spiro[bicyclo[2.2.1]heptane-7,1′-cyclopropane]-3-carboxylate]] | 8.01
2 | O=C(OC1CNC1)[C@H]1[C@H](C(=O)Nc2ccc(Br)nc2)[C@@H]2CC[C@H]1C21CC1 [Example 24, (1S,2R,3R,4R)-[Azetidin-3-yl 2-((6-bromopyridin-3-yl)carbamoyl)spiro[bicyclo[2.2.1]heptane-7,1′-cyclopropane]-3-carboxylate]hydrochloride] | 6.54
3 | O=C(OCCC1(F)CCNCC1)[C@H]1[C@H](C(=O)Nc2ccc(Br)nc2)[C@@H]2CC[C@H]1C21CC1 [Example 40, (1S,2R,3R,4R)-[2-(4-Fluoro-piperidin-4-yl)ethyl 2-((6-bromopyridin-3-yl)carbamoyl)spiro[bicyclo[2.2.1]heptane-7,1′-cyclopropane]-3-carboxylate]] | 8.34
4 | CN1C(C)(C)CC(OC(=O)[C@H]2[C@H](C(=O)Nc3ccc(Br)nc3)[C@@H]3CC[C@H]2C32CC2)CC1(C)C [Example 8, (1S,2R,3R,4R)-[1,2,2,6,6-Pentamethylpiperidin-4-yl 2-((6-bromopyridin-3-yl)carbamoyl)spiro[bicyclo[2.2.1]heptane-7,1′-cyclopropane]-3-carboxylate]] | 6.12

More lines, now with the values ahead:

Row | pEC50 | Structure (SMILES)
5 | 6.98 | Cc1cc(CNC(=O)[C@H]2[C@H](C(=O)O[C@@H]3CCNC3)[C@H]3CC[C@@H]2C32CC2)no1 [Example 19, (1S,2R,3R,4R)-[(R)-Pyrrolidin-3-yl 2-(((5-methylisoxazol-3-yl)methyl)carbamoyl)spiro[bicyclo[2.2.1]heptane-7,1′-cyclopropane]-3-carboxylate]hydrochloride]
6 | 7.82 | O=C(OC1CCNCC1)[C@H]1[C@H](C(=O)Nc2ccc(Br)nc2)[C@@H]2CC[C@H]1C21CC1 [Example 2, (1S,2R,3R,4R)-[Piperidin-4-yl 2-((6-bromopyridin-3-yl)carbamoyl)spiro[bicyclo[2.2.1]heptane-7,1′-cyclopropane]-3-carboxylate]]
7 | 8.14 | Cc1cc(CNC(=O)[C@H]2[C@H](C(=O)OCCOCCN3CC[C@H](F)C3)[C@H]3CC[C@@H]2C32CC2)on1 [Example 42, (1S,2R,3R,4R)-[(S)-2-(2-(3-Fluoropyrrolidin-1-yl)ethoxy)ethyl 2-(((3-methylisoxazol-5-yl)methyl)carbamoyl)spiro[bicyclo[2.2.1]heptane-7,1′-cyclopropane]-3-carboxylate]]
8 | 6.87 | NC(=O)CCOC(=O)[C@H]1[C@H](C(=O)Nc2ccc(Br)nc2)[C@@H]2CC[C@H]1C21CC1 [Example 68, (1S,2R,3R,4R)-[(3-Amino-3-oxopropyl) 2-((6-bromopyridin-3-yl)carbamoyl)spiro[bicyclo[2.2.1]heptane-7,1′-cyclopropane]-3-carboxylate]]
9 | 7.27 | Cc1cc(CNC(=O)[C@H]2[C@H](C(=O)OC3CCCNC3)[C@H]3CC[C@@H]2C32CC2)no1 (stereo partly drawn) [Example 16, (1S,2R,3R,4R)-[Piperidin-3-yl 2-(((5-methylisoxazol-3-yl)methyl)carbamoyl)spiro[bicyclo[2.2.1]heptane-7,1′-cyclopropane]-3-carboxylate]hydrochloride]
10 | 8.60 | O=C(OC1CCCNC1)[C@H]1[C@H](C(=O)Nc2ccc(Br)nc2)[C@@H]2CC[C@H]1C21CC1 (stereo partly drawn) [Example 9, (1S,2R,3R,4R)-[Piperidin-3-yl 2-((6-bromopyridin-3-yl)carbamoyl)spiro[bicyclo[2.2.1]heptane-7,1′-cyclopropane]-3-carboxylate]hydrochloride]
